These results are taken from patent publication US7329688B2, “Natural vitamin E compositions with superior antioxidant potency” (Soft Gel Technologies, Inc., priority 2002, dated 2008).

A short description of the test: Oxygen radical absorbance capacity (ORACFL-LIPO) assay with fluorescein probe, RMCD, AAPH, Trolox standard. As to conditions: for Antioxidant activity (ORAC), μmole Trolox equivalent per gram sample: 75 mM phosphate buffer pH 7.4, 7% RMCD; for Antioxidant activity (ORAC) per 400 IU: μmole TE/g × total weight in grams of formula which gives 400 IU. As for the experimental part: The antioxidant activities of natural d-alpha-tocopherol, mixed tocopherols and tocotrienols, and formulations comprising all forms of vitamin E were determined employing an improved oxygen radical absorbance capacity (ORAC) assay using fluorescein (FL) as a fluorescent probe, randomly methylated β-cyclodextrin (RMCD) to enhance solubility of lipophilic antioxidants in aqueous medium, 2,2′-azobis (2-amidino-propane) dihydrochloride (AAPH) as peroxyl radical generator, and Trolox as a standard in 75 mM phosphate buffer.
The antioxidant activity, commonly referred to as oxygen radical absorbance capacity (ORAC), of a lipophilic substance was measured employing a newly developed assay. This assay is based on the use of: (a) fluorescein (FL) as the fluorescent probe, (b) randomly methylated β-cyclodextrin (RMCD) as a molecular host to enhance the solubility of lipophilic antioxidants in aqueous solution, (c) 2,2′-azobis (2-amidino-propane) dihydrochloride (AAPH) as a peroxyl radical generator, and (d) 6-hydroxy-2,5,7,8-tetramethyl-2-carboxylic acid (Trolox) as a standard in 75 mM phosphate buffer (pH 7.4).
The antioxidant activities of vitamin E formulations comprising all compounds of tocopherols and tocotrienols were determined employing an improved oxygen radical absorbance capacity (abbreviated ORACFL-LIPO) assay using fluorescein (FL) as the fluorescent probe, randomly methylated β-cyclodextrin (RMCD) as the water solubility enhancer for lipophilic antioxidants in 75 mM phosphate buffer (pH 7.4).
In the presence ofperoxyl radicals derived from AAPH, the indicator FL gradually loses its fluorescence. The antioxidant activity of a substance is measured by its ability to retain the fluorescence of FL in the presence of peroxyl radicals. The net protection of FL was measured as previously described by Ou et al.
All other standards were commercially available form Sigma or Aldrich. All ORAC analyses were performed on a COBAS FARA II analyzer (Roche Diagnostic System Inc., Branchburg, NJ) using an excitation wavelength of 493 nm and an emission filter of 515 nm.
Approximately 0.5 g of sample was dissolved in 20 mL of acetone. An aliquot of sample solution was appropriately diluted with 7% RMCD solvent (w/v) made in a 50% acetone-water mixture (v/v) and was shaken for 1 hr at room temperature on an orbital shaker at 400 rpm. The sample solution was ready for analysis after further dilution with 7% RMCD solvent.
The automated ORAC assay was carried out on a COBAS FARA II spectrofluorometer centrifugal analyzer as previously described (9). With the exception of samples and Trolox standards, which were made in 7% RMCD solvent, all other reagents were prepared at 75 mM phosphate buffer (pH 7.4). In the final assay mixture (0.4 mL total volume), FL (6.3×10^−8 M) was used as a target of free radical attack and AAPH (1.28×10^−2 M) was used as a peroxyl radical generator. 7% RMCD was used as the blank, and Trolox (12.5, 25,50, and 100 μM) was used as the control standard. The analyzer was programmed to record the fluorescence of FL every minute after the addition of AAPH. All measurements were expressed relative to the initial reading. Final results were calculated using the differences of areas under the FL decay curves between the blank and a sample.
The antioxidant activity, commonly referred to as oxygen radical absorbance capacity (ORAC), of a lipophilic substance was measured employing a newly developed assay. This assay is based on the use of: (a) fluorescein (FL) as the fluorescent probe, (b) randomly methylated β-cyclodextrin (RMCD) as a molecular host to enhance the solubility of lipophilic antioxidants in aqueous solution, (c) 2,2′-azobis (2-amidino-propane) dihydrochloride (AAPH) as a peroxyl radical generator, and (d) 6-hydroxy-2,5,7,8-tetrmethyl-2-carboxylic acid (Trolox) as a standard in 75 mM phosphate buffer (pH 7.4).
In the presence of peroxyl radicals derived from AAPH, the indicator FL gradually loses its fluorescence. […]

Each structure is given as a SMILES string.

Consider `Cc1c(C)c2c(c(C)c1O)CC[C@@](C)(CCC[C@H](C)CCC[C@H](C)CCCC(C)C)O2` [d-alpha-Tocopheral (87%), d-alpha-tocopherol], for which the “Antioxidant activity (ORAC), μmole Trolox equivalent per gram sample” value reads like this: (Table 1) 1,293 ± 64 μmole TE/g; (Table 1, listed as alpha-tocopherol (87%)) 1,293 μmole TE/g; (Table 1, listed as d-alpha-tocopherol (87%)) 1,293 μmole TE/g; (Table 2) 1,293 ± 80 μmole TE/g. Also, the “Antioxidant activity (ORAC) per 400 IU” value (Table 1) is reported as 398 μmole TE/400IU and the “Antioxidant activity (ORAC) per 400 IU” value (Table 2) is 413 μmole TE/400IU.
With `CC(=O)Oc1c(C)c(C)c2c(c1C)CCC(C)(CCC[C@H](C)CCC[C@H](C)CCCC(C)C)O2` (stereo partly drawn) [Alpha-Tocopherol Acetate], for the setting “Table 1”, the “Antioxidant activity (ORAC), μmole Trolox equivalent per gram sample” value turned out to be 14 ± 10 μmole TE/g. In addition, the “Antioxidant activity (ORAC) in words, relative to d-alpha-tocopherol” value (qualitative statement) is recorded as “no antioxidant activity”.
